Patent US8071633B2, “Pharmaceutical composition for treating spinocerebellar ataxia” (Shionogi & Co., Ltd., priority 2004, dated 2011)

Legend:
Rolling Mouse Nagoya [1] = assay: Experiment 1: effect of improving ataxia on Rolling Mouse Nagoya (fall index, open-field method); format: in vivo; settings: for effect on improvement of ataxia (fall index): 1 hour after administration, FIG. 1
Source text: Experiment 1 Effect of improving ataxia on Rolling Mouse Nagoya
Rolling Mouse Nagoya, a hereditary ataxia mouse, is known as a model mouse for spinocerebellar ataxia and has been reported in many papers (E. Kurihara, N. Fukuda, S. Narumi, T. Matsuo, S. Saji, and Y. Nagawa, Jpn. Pharmacol., Ther., 13, 49-56 (1985), Y. Mano, K. Matsui, E. Toyoshima, and K. Ando, Acta. Neurol. Scand., 73, 352-358 (1986), K. Kinoshita, T. Fujitsuka, M. Yamamura, and Y. Matsuoka, Eur. J. Pharmacol., 274, 65-72 (1995), K. Kinoshita, T. Fukushima, Y, Kodama, J. Sugihara, M. Yamamura, and Y. Matsuoka, Biol. Pharm. Bull., 20, 36-39 (1997)).
Effect of Compound (I-1) for ataxia of Rolling Mouse Nagoya was investigated. The following compounds in Patent Literature 1 and Non-Patent Literature 1 were used as Control Compounds 1 and 2.
An effect on improvement of ataxia was evaluated with a fall index by an open-field method. Mice were left in the center of an open-field (circle open-field, 75 cm in a diameter, 25 divisions). Number of divisions passed and numbers of falls for 5 minutes were counted, and a fall index (numbers of falls/number of divisions passed) was calculated.
Each of the compounds was dissolved in a physiological saline on the day of the experiment. Each compound was orally administered to mice using a sonde for oral administration at the following dosage; Compound (I-1): 1 mg/kg and 3 mg/kg, Control Compound 1: 30 mg/kg and 100 mg/kg, Control Compound 2: 100 mg/kg and 300 mg/kg. Physiological saline alone was administered to mice as a control group. Volume for oral administration was 0.2 mL per 20 g body weight of a mouse.
Effect on improvement of ataxia for each mouse was evaluated 1 hour after administration by the open-field method. Sample numbers were 5 or more in every group.

[2] = test system: cerebellum-injured rat by administration of Ara-C; assay: Experiment 2: effect of improving ataxia on cerebellum-injured rat by administration of Ara-C (fall index, open-field method); format: in vivo, Sprauge-Dawley rats; settings: for effect on improvement of ataxia (fall index): oral once a day for seven days, 24 hours after final administration, FIG. 2; for dosage ratio giving the same level efficacy versus Compound (I-1): oral, repeated administration
Procedure: Experiment 2 Effect of improving ataxia on cerebellum-injured rat by administration of Ara-C
Ara-C (60 mg/kg, Nippon Shinyaku) was subcutaneously administered to Sprauge-Dawley rats (CLEA Japan, Inc) of 2 days old and 3 days old, and the effects of improving ataxia on Compound (I-1), Control Compound 1 and Control Compound 2 at 4 weeks old were investigated.
The effect of improving on ataxia was evaluated with a fall index by an open-field method. Rats were left in the center of an open-filed (circle open-filed, 75 cm in a diameter, 25 divisions), number of divisions passed and numbers of falls for 3 minutes were counted, and a fall index (numbers of falls/number of divisions passed) was calculated.
Each of the compounds was dissolved in a physiological saline on the day of administration. Each compound was orally administered to rats using a sonde for oral administration at the following dosage; Compound (I-1): 0.1 mg/kg, 0.3 mg/kg, 1 mg/kg and 3 mg/kg, Control Compound 1: 30 mg/kg and 100 mg/kg, Control Compound 2: 100 mg/kg and 300 mg/kg. Physiological saline alone was administered to rats as a control group. The compounds were repetitively orally administered one a day for seven days and the effect was investigated 24 hours after the final administration. Volume for oral administration was 0.1 mL per 100 g body weight of a rat. Sample numbers were 5 or more in every group.

Rolling Mouse Nagoya [3] = assay: Experiment 3: effect of improving ataxia on Rolling Mouse Nagoya (fall index, square open-field); format: in vivo; settings: oral 100 mg/kg, 1 hour after administration, FIG. 3
Procedure: Experiment 3 Effect of improving ataxia on Rolling Mouse Nagoya
Effects of the compounds described in Patent Literature 8 (I-3: R=CN, I-1: R=CONH2) and Control Compound 2 on ataxia on Rolling Mouse Nagoya were investigated.
The effect on ataxia was evaluated with a fall index by an open-field method. Mice were left in the center of an open-field (square open-field, 100 cm×100 cm, divided into 25 squares of 20 cm×20 cm), number of squares passed and numbers of falls for 10 minutes were counted, and a fall index (numbers of falls/number of squares passed) was calculated.
Each of the compounds was dissolved in a physiological saline on the day of the experiment. Each compound was orally administered to mice using a sonde for oral administration at the following dosage; Compounds (I-3) and (I-4): 10 mg/kg, Control Compound 2: 100 mg/kg. Volume for oral administration was 0.2 mL per 20 g body weight of a mouse.
Each of the test compound was orally administered just after a fall index of each mouse in the open-field was calculated. A fall index was calculated again 1 hour after administration and the effect of improving ataxia was evaluated. Sample numbers were 5 or more in every group.

[4] = oral, comparison of effective doses

| Compound | effect on improvement of ataxia (fall index) (Rolling Mouse Nagoya [1]; oral, only at 100 mg/kg (30 and 100 mg/kg tested)) | effect on improvement of ataxia (fall index) ([2]; only at 100 mg/kg (30 and 100 mg/kg tested)) | dosage ratio giving the same level efficacy versus Compound (I-1) [2] | effect on improvement of ataxia (fall index) (Rolling Mouse Nagoya [1]; oral 3 mg/kg) | effect of improving ataxia relative to Control Compound 1 (Rolling Mouse Nagoya [1]; [4]) | effect of improving ataxia relative to Control Compound 2 (Rolling Mouse Nagoya [1]; [4]) | effect on improvement of ataxia (fall index) ([2]; 0.3 mg/kg or more) | effect on improvement of ataxia (fall index) (Rolling Mouse Nagoya [1]; oral, even at 300 mg/kg (100 and 300 mg/kg tested)) | effect on improvement of ataxia (fall index) ([2]; even at 300 mg/kg) | effect of improving ataxia (fall index before vs after administration) (Rolling Mouse Nagoya [3]) |
| --- | --- | --- | --- | --- | --- | --- | --- | --- | --- | --- |
| CN1C(=O)C[C@H](C(=O)N[C@H](Cc2c[nH]cn2)C(=O)N2CCC[C@@H]2C(N)=O)NC1=O [Control Compound 1] | superior effect of improving ataxia to that in a control group | superior effect on improvement of ataxia in comparison of a control group | 1/300 |  |  |  |  |  |  |  |
| C[C@@H]1OC(=O)N[C@@H]1C(=O)N[C@@H](Cc1cscn1)C(=O)N1CCC[C@H]1C.O.O.O [Compound (I-1)] |  |  |  | superior effect on improvement of ataxia | ≥ 30 times | ≥ 100 times | superior effect on improvement of ataxia to Control Compounds |  |  |  |
| NC(=O)[C@H]1CCCN1C(=O)[C@@H](Cc1c[nH]cn1)NC(=O)[C@@H]1CCC(=O)N1 [Control Compound 2] |  |  | 1/1000 |  |  |  |  | does not show the improvement effect | does not show the improvement effect | weak improvement effect |
